The record followed here is paper PMC8175350, “Drug repurposing screens identify chemical entities for the development of COVID-19 interventions” (Nature Communications, 2021).

Counter-ions that a name gives are not always drawn. Like-named read-outs stand apart in the source and are kept apart here. Where only a bound is given, the exact number is not on record here.

The test system of data set [1] is SARS-CoV-2. The experiment in a line: microbe, parasite or virus in culture. It is filed as cell-based. To be noted: for EC50: read-out: HeLa-ACE2 CoV-2 EC50 GeoMean.
The nature of data set [2]: Uninfected HeLa-ACE2 24 h live/dead cytotoxicity counter screen. It is filed as cell-based, human. To be noted: human, uninfected HeLa-ACE2 cells, unrounded geometric mean; read-out: HeLa-ACE2 uninfected cytotoxicity CC50 GeoMean. Background: Counterscreens check selectivity or assay interference.
The test system of data set [3] is SARS-CoV-2. The experiment in a line: microbe, parasite or virus in culture. It is filed as cell-based.
Data set [4] has as its system SARS-CoV-2. It is filed as cell-based.
Data set [5] deals with HeLa-ACE2 cells. The experiment in a line: cells. To be noted: Homo sapiens, HeLa-ACE2, read-out: HeLa-ACE2 cell count EC50 GeoMean, unrounded geometric mean.
In data set [6] the test system is Calu-3 cells. The experiment in a line: cells. To be noted: Homo sapiens.
Data set [7] is described as follows: Uninfected Calu-3 48 h Cell-Titer Glo cytotoxicity counter screen. The note with it: human, uninfected Calu-3 cells, Calu-3 uninfected cytotoxicity CC50 GeoMean, unrounded geometric mean.
Data set [8] has as its system Calu-3 cells. The data set is described as above. To be noted: for CC50: read-out: Calu-3 uninfected cytotoxicity CC50 GeoMean.
The subject of data set [9] is HeLa-ACE2 cells. The experiment in a line: Uninfected HeLa-ACE2 24 h live/dead cytotoxicity counter screen. It is filed as cell-based, human. To be noted: for CC50: read-out: HeLa-ACE2 uninfected cytotoxicity CC50 GeoMean.
Data set [10] has as its system HeLa-ACE2 cells. To be noted: for EC50: read-out: HeLa-ACE2 cell count EC50 GeoMean.
In data set [11] the test system is Calu-3 cells. The note with it: for EC50: read-out: Calu-3 cell count EC50 GeoMean.
In data set [12] the test system is SARS-CoV-2. The experiment in a line: microbe, parasite or virus in culture. It is filed as cell-based. This is another data set of the same source.
Data set [13] relates to SARS-CoV-2. It is filed as cell-based. To be noted: combination with remdesivir.
Data set [14] relates to HeLa-ACE2 cells. The experiment in a line: cells. It is filed as cell-based, human. To be noted: read-out: HeLa-ACE2 TOA cell count EC50 GeoMean.
The subject of data set [15] is HepG2. The experiment in a line: HepG2 72 h CellTiter-Glo cytotoxicity. To be noted: 72 h. Background: In ATP-based viability assays light output follows the ATP content of the culture.
For data set [16], the system named is HEK293T. The experiment in a line: HEK293T 72 h CellTiter-Glo cytotoxicity. The note with it: 72 h.
The mark [17] stands for this setting: curve-fit effect at infinite concentration, average.
The mark [18] stands for this setting: unrounded geometric mean, read-out: Calu-3 CoV-2 EC50 GeoMean.
Where [19] appears, read: curve plateau at infinite concentration.

As for `N=C(N)c1ccc2cc(OC(=O)c3ccc(N=C(N)N)cc3)ccc2c1` [Nafamostat mesylate], the EC50 was above 9.59 µM in [1] (Severe acute respiratory syndrome coronavirus 2, HeLa-ACE2, unrounded geometric mean); 0.024 µM in data set [3] (Severe acute respiratory syndrome coronavirus 2, Calu-3, unrounded geometric mean, read-out: Calu-3 CoV-2 EC50 GeoMean); 0.024 µM in [3] (Severe acute respiratory syndrome coronavirus 2, Calu-3, geomean, read-out: SARS-CoV-2 EC50); above 9.59 µM in data set [5]; 0.04 µM in data set [6] (Calu-3, read-out: Calu-3 cell count EC50 GeoMean, unrounded geometric mean); 0.04 µM in data set [6] (Calu-3, read-out: cell count EC50, Calu-3, geomean, ^↑ = increasing dose-response curve). The CC50 at 24 h in [2] is above 39.8 µM. In addition, the Emax in [3] (Severe acute respiratory syndrome coronavirus 2, Calu-3, 48 h, curve-fit effect at infinite concentration, average, read-out: Calu-3 CoV-2 Sinf Average) came to 93%; in [6] (Calu-3, 48 h, read-out: Calu-3 cell count Sinf Average) it was 100%. The “effect on viral replication in ALI-HBECs” value in [4] was “inhibited viral replication”. In addition, the CC50 at 48 h in data set [7] was above 29.9 µM. Besides, in data set [8] (setting [17]), the “Calu-3 uninfected cytotoxicity Sinf Average” value is on record as -100%.

As to `NS(=O)(=O)c1ccc(N2N=C(C(F)(F)F)CC2c2c[nH]c3c(Cl)cccc23)cc1` (centres unmarked) [ON-09310], the “HeLa-ACE2 CoV-2 Sinf Average” value in data set [1] (setting [17]) is -100%. Moreover, the EC50 in data set [1] (unrounded geometric mean) was 3.72 µM; in data set [3] (setting [18]) it was 1.81 µM; in [10] (unrounded geometric mean), above 9.33 µM; in data set [11] (unrounded geometric mean), above 8.32 µM. In addition, the “HeLa-ACE2 uninfected cytotoxicity Sinf Average” value in data set [9] (setting [17]) is given as -103%. In addition, the CC50 in data set [9] (unrounded geometric mean) turned out to be 8.2 µM; in [8] (unrounded geometric mean) it was 16.9 µM. The “Calu-3 CoV-2 Sinf Average” value in data set [3] (setting [17]) is -95%. Also, the “HeLa-ACE2 cell count Sinf Average” value in [10] (setting [17]) is -100%. In addition, the “Calu-3 cell count Sinf Average” value in [11] (setting [17]) worked out at 100%. In data set [8] (setting [17]), the “Calu-3 uninfected cytotoxicity Sinf Average” value is reported as -97%.

On to `CCN(CC)CCCNc1nccc2c(C)c3[nH]c4ccc(O)cc4c3c(C)c12` [SR-26050], for which the “HeLa-ACE2 CoV-2 Sinf Average” value in data set [1] (setting [17]) is -101%. Further, the concentration for a half-maximal effect (EC50) was 0.359 µM in data set [1] (unrounded geometric mean), 0.503 µM in [3] (setting [18]), 0.48 µM in data set [10] (unrounded geometric mean) and above 9.98 µM in [11] (unrounded geometric mean). For the same compound, in data set [9] (setting [17]), the “HeLa-ACE2 uninfected cytotoxicity Sinf Average” value is recorded as -98%. The CC50 in data set [9] (unrounded geometric mean) turned out to be 0.602 µM; in data set [8] (unrounded geometric mean), 5.84 µM. Further, in data set [3], the “Calu-3 CoV-2 Sinf Average” value is given as -103%. In addition, the “HeLa-ACE2 cell count Sinf Average” value in data set [10] (setting [17]) is on record as -103%. Also, the “Calu-3 uninfected cytotoxicity Sinf Average” value in data set [8] (setting [17]) was -100%.

In the case of `CN(C)CC1=C[CH]([Fe][CH]2C=CC=C2)C=C1CNc1ccnc2cc(Cl)ccc12` (centres unmarked) [Ferroquine], the “HeLa-ACE2 CoV-2 Sinf Average” value in [1] (setting [19]) is reported as -97%. Besides, the EC50 is 1.31 µM in data set [1] (detail block); above 9.98 µM in data set [3] (read-out: Calu-3 CoV-2 EC50 GeoMean); above 9.59 µM in data set [12] (read-out: HeLa-ACE2 TOA CoV-2 EC50 GeoMean); above 9.59 µM in data set [14]; above 6.8 µM in [10] (detail block); above 9.98 µM in [11] (detail block). Moreover, the “HeLa-ACE2 SI” value in data set [1] (selectivity index, uninfected HeLa-ACE2 CC50 / SARS-CoV-2 EC50) worked out at 10.29. Besides, the “HeLa-ACE2 uninfected cytotoxicity Sinf Average” value in data set [9] (setting [19]) was -100%. Also, the CC50 in data set [9] (detail block) turned out to be 13.4 µM; in [15] (read-out: HepG2 72-hour cytotoxicity CC50 GeoMean), 4.72 µM; in data set [16] (read-out: HEK293T 72-hour cytotoxicty CC50 GeoMean) it was 7.24 µM; in [8] (detail block), 17.5 µM. Besides, the “Calu-3 CoV-2 Sinf Average” value in data set [3] (setting [19]) is -100%. Also, the “TOA:HeLa-ACE2 EC50 Ratio” value in [12] was found to be 7.345. Further, in data set [12] (setting [19]), the “HeLa-ACE2 TOA CoV-2 Sinf Average” value was -100%. Besides, in data set [13], the “HeLa-ACE2 synergy score with remdesivi” value is listed as -2.076 δ. For the same compound, in data set [10] (setting [19]), the “HeLa-ACE2 cell count Sinf Average” value is -53%. For the same compound, the “HepG2 72-hour cytotoxicity Sinf Average” value in data set [15] is given as -100%. In addition, the “HEK293T 72-hour cytotoxicty Sinf Average” value in data set [16] was -100%. The “Calu-3 uninfected cytotoxicity Sinf Average” value in [8] (setting [19]) is on record as -100%.

For orientation: EC50 means the concentration that produces a half-maximal response. For orientation: CC50 means the concentration that lowers cell viability or growth by half.
